Source: PMC12300381, “Synthesis, Biological Evaluation, and In Silico Characterization of Novel Imidazothiadiazole–Chalcone Hybrids as Multi-Target Enzyme Inhibitors” (Pharmaceuticals, 2025)

Assays:
Format in all cases: biochemical
Conditions in all cases: for IC50: Table 2
hCA I = hCA I (Homo sapiens, UniProt P00915); assay: hCA I esterase activity inhibition (Verpoorte method, p-nitrophenylacetate)
Procedure: (§1) The activities of the CA isoenzymes were measured in accordance with Verpoorte et al.’s previously described methodology. […] There was 400 µL of Tris–HCl buffer (pH 7.4), 360 µL of PNA (3.0 mM), 220 µL of H2O, and 20 µL of purified hCA isoenzyme in the reaction mixture. The identical cuvette was prepared without the enzyme in order to obtain a control measurement. The standard protein was bovine serum albumin.
(§2) To determine the IC50 values of the tested compounds, enzyme activity measurements were conducted at five to six different inhibitor concentrations. Percent activity values were calculated for each dose, taking into account the compounds’ molecular weights and dilution factors.
(§3) The IC50 study was completed prior to the Kᵢ determination. For the Kᵢ analysis, three selected concentrations of each inhibitor were used alongside a control (uninhibited) reaction.
(§4) Kᵢ values and standard deviations were calculated based on the type of inhibition (competitive or non-competitive), as inferred from the intersection pattern of the Lineweaver–Burk lines. These kinetic parameters allowed for further insight into the binding affinities and inhibition mechanisms of the compounds.

hCA II = hCA II (Homo sapiens, UniProt P00918); assay: hCA II esterase activity inhibition (Verpoorte method, p-nitrophenylacetate)
Procedure: as §1, §2
The IC50 study was completed prior to the Kᵢ determination. For the Kᵢ analysis, three selected concentrations of each inhibitor were used alongside a control (uninhibited) reaction. Enzyme activity data were converted to 1/V values and plotted against 1/[S] to generate Lineweaver–Burk plots.
as §4

AChE = molecular target: T1, AChE (Electrophorus electricus, UniProt O42275); assay: biochemical
T1 construct: purchased Sigma-Aldrich Chemie, St. Louis, MO, USA C2888-500UN
Procedure: (§5) The previously published Ellman’s technique was used to measure the BChE and AChE activities. AChE (C2888-500UN) from Electrophorus electricus and BChE (C1057-1KU), extracted from equine serum, were both obtained from Sigma-Aldrich Chemie, St. Louis, MO, USA. The BChE/AChE activities were measured using 5,5′-dithiobis(2-nitrobenzoic acid) (DTNB) and butyrylthiocholine iodide (BChI)/[…] (AChI). In short, […] of the sample solutions with varying concentrations was dissolved in deionized water along with 100 µL of buffer (Tris–HCl, 1.0 M, pH 8.0). […] A fraction of DTNB (50 µL, 0.5 mM) was added following incubation. Finally, 50 µL of BChI/AChI (10/10 mM) was added to initiate the reaction. […] All enzymatic activity determination solutions, except AChE/BChE, were included in the negative control.
as §2, §3, §4

BChE = molecular target: T2, BChE (Equus caballus, UniProt P81908); assay: biochemical
T2 construct: BChE (C1057-1KU), extracted from equine serum; purchased Sigma-Aldrich Chemie, St. Louis, MO, USA C1057-1KU; host or cells: equine serum
Procedure: as §5, §2, §3, §4

T1 sequence (O42275 24-633): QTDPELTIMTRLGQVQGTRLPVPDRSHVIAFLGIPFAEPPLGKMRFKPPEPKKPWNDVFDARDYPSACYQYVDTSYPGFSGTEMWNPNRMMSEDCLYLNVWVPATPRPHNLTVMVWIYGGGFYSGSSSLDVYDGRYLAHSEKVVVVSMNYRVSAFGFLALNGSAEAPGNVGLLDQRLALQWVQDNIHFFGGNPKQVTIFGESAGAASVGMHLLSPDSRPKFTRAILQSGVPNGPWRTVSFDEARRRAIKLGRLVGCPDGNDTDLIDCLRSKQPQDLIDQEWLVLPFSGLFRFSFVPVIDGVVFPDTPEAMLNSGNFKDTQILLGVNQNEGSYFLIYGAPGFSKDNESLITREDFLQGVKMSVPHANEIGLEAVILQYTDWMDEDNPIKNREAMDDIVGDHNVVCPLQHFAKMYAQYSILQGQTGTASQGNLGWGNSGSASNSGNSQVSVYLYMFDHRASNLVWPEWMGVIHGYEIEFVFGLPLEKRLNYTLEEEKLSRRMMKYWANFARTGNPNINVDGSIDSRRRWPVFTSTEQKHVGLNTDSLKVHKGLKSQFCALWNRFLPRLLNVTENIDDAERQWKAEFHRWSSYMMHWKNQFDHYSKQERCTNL
Chain of hCA I (P00915 whole entry): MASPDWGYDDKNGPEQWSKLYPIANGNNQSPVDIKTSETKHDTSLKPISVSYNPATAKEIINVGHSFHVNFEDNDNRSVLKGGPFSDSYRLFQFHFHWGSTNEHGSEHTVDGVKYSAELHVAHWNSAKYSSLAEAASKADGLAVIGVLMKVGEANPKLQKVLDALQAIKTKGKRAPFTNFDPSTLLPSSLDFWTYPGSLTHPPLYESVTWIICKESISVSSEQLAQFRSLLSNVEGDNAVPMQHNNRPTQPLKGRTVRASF
T2 sequence (P81908 whole entry): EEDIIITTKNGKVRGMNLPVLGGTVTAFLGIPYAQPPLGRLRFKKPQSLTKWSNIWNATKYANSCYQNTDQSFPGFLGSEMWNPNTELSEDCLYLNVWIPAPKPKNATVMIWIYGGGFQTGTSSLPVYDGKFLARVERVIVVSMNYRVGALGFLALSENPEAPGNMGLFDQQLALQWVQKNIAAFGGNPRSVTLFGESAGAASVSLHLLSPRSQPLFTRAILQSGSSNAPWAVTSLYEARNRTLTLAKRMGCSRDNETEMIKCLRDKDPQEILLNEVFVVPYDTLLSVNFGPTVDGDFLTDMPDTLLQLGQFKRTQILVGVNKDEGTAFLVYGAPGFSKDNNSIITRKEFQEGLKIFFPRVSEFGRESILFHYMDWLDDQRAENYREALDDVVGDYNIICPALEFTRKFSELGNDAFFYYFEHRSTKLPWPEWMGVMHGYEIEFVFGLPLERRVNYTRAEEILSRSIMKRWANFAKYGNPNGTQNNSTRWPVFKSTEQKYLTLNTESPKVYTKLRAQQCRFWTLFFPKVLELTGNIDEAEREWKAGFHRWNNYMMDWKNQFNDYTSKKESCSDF

Row | Structure (SMILES) | Ki (hCA I; Lineweaver-Burk plots) [nM] | IC50 (hCA I) [nM] | Ki (hCA II; Lineweaver-Burk plots) [nM] | IC50 (hCA II) [nM] | Ki (AChE; Lineweaver-Burk plots) [nM] | inhibition type, AChE (AChE; Lineweaver-Burk plots) | IC50 (AChE) [nM] | Ki (BChE; Lineweaver-Burk plots) [nM] | inhibition type, BChE (BChE; Lineweaver-Burk plots) | IC50 (BChE) [nM] | inhibition type, hCA II (hCA II; Lineweaver-Burk plots) | inhibition type, hCA I (hCA I; Lineweaver-Burk plots)
1 | COc1ccc(C(=O)/C=C/c2c(-c3ccccc3)nc3sc(SCc4ccccc4)nn23)cc1 [8a, (E)-3-(2-(Benzylthio)-6-phenylimidazo[2,1-b][1,3,4]thiadiazol-5-yl)-1-(4-methoxyphenyl)prop-2-en-1-one] | 81.2 ± 4.36 | 73 | 49.3 ± 5.03 | 41.1 | 3.86 ± 0.2 | competitive | 4.36 | 1.01 ± 0.08 | competitive | 1.37 |  | 
2 | O=C(/C=C/c1c(-c2ccccc2)nc2sc(SCc3ccccc3)nn12)c1ccc(Cl)cc1 [8b, (E)-3-(2-(Benzylthio)-6-phenylimidazo[2,1-b][1,3,4]thiadiazol-5-yl)-1-(4-chlorophenyl)prop-2-en-1-one] | 78 ± 5.48 | 64.4 | 52.5 ± 6.24 | 49.3 | 6.01 ± 0.35 |  | 6.77 | 1.7 ± 0.1 |  | 1.95 |  | 
3 | COc1ccc(C(=O)/C=C/c2c(-c3ccccc3)nc3sc(SCc4ccc(F)cc4)nn23)cc1 [8c, (E)-3-(2-((4-Fluorobenzyl)thio)-6-phenylimidazo[2,1-b][1,3,4]thiadiazol-5-yl)-1-(4-methoxyphenyl)prop-2-en-1-one] |  |  | 36.1 ± 5.36 | 30.2 | 11.3 ± 1.02 |  | 13 | 1.56 ± 0.06 |  | 2.03 | non-competitive | 
4 | O=C(/C=C/c1c(-c2ccccc2)nc2sc(SCc3ccc(F)cc3)nn12)c1ccc(Cl)cc1 [8d, (E)-1-(4-Chlorophenyl)-3-(2-((4-fluorobenzyl)thio)-6-phenylimidazo[2,1-b][1,3,4]thiadiazol-5-yl)prop-2-en-1-one] | 45.1 ± 3.91 | 39.1 | 39.6 ± 4.91 | 34.1 | 7.98 ± 0.6 |  | 9.3 | 1.78 ± 0.12 |  | 1.98 |  | non-competitive
